Measurements from US10694752B2 (priority 2016, dated 2020).
Where “and” joins values, the source holds several entries; their conditions need not be identical. Equal entries are not always repeated.

Columns and labels:
[1] = tested on: wild type Chlorella sorokiniana; test: Growth of wild type Chlorella sorokiniana in the presence of propiconazole (OD at 750 nm); format: cell-based; settings: 10 μM propiconazole; FIG. 1
Method: (§1) Chlorella sorokiniana cells (Wild type) and propiconazole resistant mutants of Chlorella species (PcZ-2) were inoculated at 0.1-0.15 OD@750 nm (each set in triplicates). To verify the effect of methanol (propiconazole was dissolved in methanol), one set was treated with 0.1% methanol. One set of flasks in triplicate of Wild type and PcZ-2 mutants were inoculated with and without 10 μM propiconazole. After inoculation flasks were kept in 12 h light/12 hour dark cycles of white light in an incubator shaker at 100 rpm. The temperature was 28° C., 70% humidity and 2% ambient CO2. 3 mL sample was removed each day, to determine the Optical density (OD) of the culture at 750 nm. The results obtained are as illustrated in FIG. 1.
(§2) FIG. 1 illustrates a graph of the growth comparison between wild type Chlorella sorokiniana and propiconazole resistant Chlorella sorokiniana mutant PcZ-2, in the presence of propiconazole, wherein A represents wild type Chlorella sorokiniana in the absence of propiconazole, B represents wild type Chlorella sorokiniana grown in the presence of 0.1% methanol, C represents wild type Chlorella sorokiniana grown in the presence of 10 μM propiconazole, D represents PcZ-2 grown in the absence of propiconazole, E represents PcZ-2 grown in the presence of 0.1% methanol, and F represents PcZ-2 grown in the presence of 10 μM propiconazole.

[2] = tested on: propiconazole resistant Chlorella sorokiniana mutant PcZ-2 (CCAP 211/134); test: Growth of propiconazole resistant mutant PcZ-2 in the presence of propiconazole (OD at 750 nm); format: cell-based; settings: 10 μM propiconazole; for Average % increase PcZ-2 + 10 uM PcZ: average of triplicates, compared with wild type without propiconazole; for % increase PcZ-2 + 10 μM PcZ: growth of PcZ-2 compared with wild type without propiconazole, individual replicates, 28° C., listed as PcZ
Method: as §1, §2

## CCCC1COC(Cn2cncn2)(c2ccc(Cl)cc2Cl)O1 (centres unmarked) [propiconazole, Propiconazole]
[1]
  growth of wild type Chlorella sorokiniana culture in the presence of propiconazole: crashes after a few days
[2]; FIG. 1
  growth of PcZ-2 in the presence of propiconazole: capable of growing
[2]; day 4
  Average % increase PcZ-2 + 10 uM PcZ: 62.66%
  % increase PcZ-2 + 10 μM PcZ: 52.73% and 66.67% and 68.57%
[2]; day 6
  Average % increase PcZ-2 + 10 uM PcZ: 20.01%
  % increase PcZ-2 + 10 μM PcZ: 13.33% and 28.96% and 17.75%
[2]; day 7
  Average % increase PcZ-2 + 10 uM PcZ: 21.07%
  % increase PcZ-2 + 10 μM PcZ: 10.64% and 29.37% and 23.19%
